Data taken from US8796333B2, “Method of using β-hydroxy-β-methylbutyrate to treat a condition” (Abbott Laboratories, priority 2005, dated 2014).

Tests used:
stress = experiment: Working examples: individuals with psychological, surgical or pre-surgical stress given HMB; format: in vivo, human; settings: person
Description: A person suffering from severe symptoms of psychological stress as a result of a burn injury is administered 500 mg (Nutritional Liquid #1) of HMB 4 times a week for a year. One year later the symptoms of psychological stress are reduced.
A person suffering from symptoms of surgical stress is administered 200 mg of HMB (Nutritional Liquid #2) 7 times a week for 2 months. Two months later the symptoms of surgical stress are reduced.
A person suffering from symptoms of pre-surgical stress is administered 200 mg of HMB (capsules) once a day for 3 weeks preceding the individual's scheduled surgery. At the end of the 3 weeks, symptoms of pre-surgical stress are reduced.

seasonal allergies = experiment: Working examples: individuals having or at risk for seasonal allergies given HMB; format: in vivo, human
Description: An individual who suffers from seasonal allergies in the spring is given 0.25-1 g of HMB (Nutritional Liquid #5) four times a week for a year. The symptoms of seasonal allergies are reduced the following spring.
The individual is administered 0.1-1.5 g of HMB (Nutritional Liquid #3) once a day for 6 months.

kidney tumors = experiment: Working example: individual treated for kidney tumors given HMB; format: in vivo, human; settings: person; 750 mg HMB (capsules) four times a week for a year
Description: A person diagnosed with and has been treated for kidney tumors is administered 750 mg of HMB (capsules) four times a week for a year.

[1] = system: peripheral blood mononuclear cells (PBMC) stimulated with CD3/CD28; experiment: Cytokine production by PBMCs stimulated with CD3/CD28 for 24 hours, Bio-plex Cytokine Assay; format: cell-based, human
Description: To induce production of cytokines, PBMCs, isolated from peripheral blood of 10 normal healthy donors, are stimulated for 24 hours with the T cell stimulant CD3/CD28. Cytokine production is analyzed using a Bio-plex Cytokine Assay. The Bio-Plex technology is based on antibody-antigen interactions, wherein fluorescently labeled beads conjugated with antibody directed against the cytokine of interest bind target cytokine to the bead. This bead-cytokine complex is then exposed to a biotinylated detection antibody and a streptavidin-PE (phycoerythrin) reporter molecule. The signal from the reporter molecule is directly proportional to the amount of cytokine present, thus enabling cytokine quantification.
Each of the T cell-derived cytokines quantified in the experiment is described in the following table:
A t-test (paired sample, two-tailed) is performed in which a broad range of type 1 and type 2 cytokines are evaluated from cultures with HMB compared to cultures and without HMB.

melanoma = experiment: Working example: individual treated for melanoma given HMB; format: in vivo, human; settings: person; 1 g HMB (Nutritional Liquid #1) 4 times a week for a year
ovarian cancer = experiment: Working example: individual after chemotherapy for ovarian cancer given HMB; format: in vivo, human; settings: person after chemotherapy; 2-10 g HMB (Nutritional Liquid #1) four times a week for a year
Description: A person who has undergone chemotherapy for ovarian cancer is administered 2-10 g of HMB (Nutritional Liquid #1) four times a week for a year.

[2] = system: respiratory tract infections; experiment: Working examples: respiratory infections in individuals given HMB; format: in vivo, human; settings: person recovered from pneumonia; 250 mg HMB (Nutritional Liquid #1) once a day for 6 months
Description: A person, after conventional treatment for and recovery from pneumonia, is administered 250 mg of HMB (Nutritional Liquid #1) once a day for 6 months.
A person is training for the New York Marathon. During their training period and for 3 months following the event they take two servings per day of Nutritional formula #6 (containing 1 gram HMB per serving).

asthma = experiment: Working examples: individuals having or at risk for asthma given HMB; format: in vivo, human
Description: A person who normally has four exacerbations of asthma per year is administered 1-10 g of HMB (Nutritional Liquid #5) four times a week for a year.
A person suffering from moderate persistent asthma is tested to determine the individual's FEV1 percentage value and the value is recorded.
A person suffering from mild intermittent asthma is tested to determine the individual's FEV1 percentage value and a value of 83% is recorded. The individual is then administered 1.5-6 g of HMB 4 times (Nutritional Liquid #5) a week for a year. One year later the individual's FEV1 remains above 80% and symptoms of asthma are reduced.
The individual is administered 250 mg of HMB (Nutritional Liquid #4) once a day for 6 months.

[3] = 1 mM, 5 mM and 10 mM HMB, FIG. 3
[4] = 5 mM and 10 mM HMB, PBMC, CD3/CD28, 24 hours, vs no HMB, FIG. 1
[5] = PBMC, CD3/CD28, 24 hours, vs no HMB, FIG. 1
[6] = PBMC, CD3/CD28, 24 hours, vs no HMB, FIG. 2
[7] = person, moderate persistent asthma, 5-10 g HMB (Nutritional Liquid #5) 4 times a week for a year

## CC(C)(O)CC(=O)O [HMB, β-hydroxy-β-methylbutyrate]
stress; 200 mg HMB (Nutritional Liquid #2) 7 times a week for 2 months
  symptoms of surgical stress, two months later: reduced
stress; 200 mg HMB (capsules) once a day for 3 weeks before surgery
  symptoms of pre-surgical stress at the end of 3 weeks: reduced
stress; 500 mg HMB (Nutritional Liquid #1) 4 times a week for a year
  symptoms of psychological stress after burn injury, one year later: reduced
Seasonal allergies; individual, 0.25-1 g HMB (Nutritional Liquid #5) four times a week for a year
  symptoms of seasonal allergies the following spring: reduced
Seasonal allergies; person with family history, no signs at start, 0.1-1.5 g HMB (Nutritional Liquid #3) once a day for 6 months
  signs of seasonal allergies six months later: still shows no signs
Kidney tumors
  spread of kidney tumor six months later: has not spread
[1]; [3]
  IL-2 production relative to IL-5 production: increased
  IL-2 production relative to IL-13 production: increased
[1]; 5 mM and 10 mM HMB, FIG. 3
  IL-2 production relative to IL-4 production: Increases
  IL-2 production relative to IL-10 production: Increases
[1]; 5 mM and 10 mM HMB, FIG. 4
  IL-12 production relative to IL-4: Increases
  IL-12 production relative to IL-5: Increases
  IL-12 production relative to IL-10: Increases
  IL-12 production relative to IL-13: Increases
[1]; 5 mM and 10 mM HMB, FIG. 5
  IFNγ production relative to IL-5: increases
[1]; 5 mM and 10 mM HMB, PBMC of 10 healthy donors, CD3/CD28, 24 hours, vs no HMB, FIG. 1
  IL-2 production (type 1 cytokine): Significant dose response increases
[1]; [4]
  IFNγ production (type 1 cytokine): Significant dose response increases
  IL-12 production (type 1 cytokine): Significant dose response increases
[1]; 10 mM HMB, FIG. 5
  IFNγ production relative to IL-4: Increases
  IFNγ production relative to IL-10: Increases
[1]; 10 mM HMB, PBMC, CD3/CD28, 24 hours, vs no HMB, FIG. 2
  IL-10 production (type 2 cytokine): significant decrease
[1]; [5]
  GC-CSF production: does not significantly affect
  TNFα production: does not significantly affect
[1]; [6]
  IL-4 production (type 2 cytokine): does not significantly affect
  IL-5 production (type 2 cytokine): does not significantly affect
  IL-13 production (type 2 cytokine): does not significantly affect
melanoma
  spread of melanoma six months later: has not spread
Ovarian cancer
  return of ovarian cancer one year later: has not returned
[2]
  respiratory tract infections, including recurrence of pneumonia, during six months: remains free of respiratory tract infections
asthma; person with family history, no signs at start, 250 mg HMB (Nutritional Liquid #4) once a day for 6 months
  signs of symptoms of asthma six months later: still shows no signs
asthma; person, mild intermittent asthma, baseline FEV1 83%, 1.5-6 g HMB (Nutritional Liquid #5) 4 times a week for a year
  FEV1 one year later: above 80%
asthma; person, mild intermittent asthma, 1.5-6 g HMB (Nutritional Liquid #5) 4 times a week for a year
  symptoms of asthma one year later: reduced
asthma; [7]
  FEV1 one year later: has not decreased
  symptoms of asthma one year later: reduced
asthma; person, normally four exacerbations per year, 1-10 g HMB (Nutritional Liquid #5) four times a week for a year
  asthma exacerbation frequency: decreases to once a year
